How the values were obtained:
Integrin alpha-V/beta-3 = Integrin alpha-V/beta-3 (Homo sapiens, UniProt P05106+P06756); experiment: Binding affinity to integrin […] receptor by ELISA; type: protein-complex assay
Integrin alpha-V/beta-5 = Integrin alpha-V/beta-5 (Homo sapiens, UniProt P06756+P18084); experiment: Binding affinity to integrin […] receptor by ELISA; type: protein-complex assay
Integrin alpha-5/beta-1 = Integrin alpha-5/beta-1 (Homo sapiens, UniProt P05556+P08648); experiment: Binding affinity to integrin alpha5beta1 receptor by ELISA; type: protein-complex assay
Sequence of Integrin alpha-5/beta-1 (P05556 21-798 limits assumed): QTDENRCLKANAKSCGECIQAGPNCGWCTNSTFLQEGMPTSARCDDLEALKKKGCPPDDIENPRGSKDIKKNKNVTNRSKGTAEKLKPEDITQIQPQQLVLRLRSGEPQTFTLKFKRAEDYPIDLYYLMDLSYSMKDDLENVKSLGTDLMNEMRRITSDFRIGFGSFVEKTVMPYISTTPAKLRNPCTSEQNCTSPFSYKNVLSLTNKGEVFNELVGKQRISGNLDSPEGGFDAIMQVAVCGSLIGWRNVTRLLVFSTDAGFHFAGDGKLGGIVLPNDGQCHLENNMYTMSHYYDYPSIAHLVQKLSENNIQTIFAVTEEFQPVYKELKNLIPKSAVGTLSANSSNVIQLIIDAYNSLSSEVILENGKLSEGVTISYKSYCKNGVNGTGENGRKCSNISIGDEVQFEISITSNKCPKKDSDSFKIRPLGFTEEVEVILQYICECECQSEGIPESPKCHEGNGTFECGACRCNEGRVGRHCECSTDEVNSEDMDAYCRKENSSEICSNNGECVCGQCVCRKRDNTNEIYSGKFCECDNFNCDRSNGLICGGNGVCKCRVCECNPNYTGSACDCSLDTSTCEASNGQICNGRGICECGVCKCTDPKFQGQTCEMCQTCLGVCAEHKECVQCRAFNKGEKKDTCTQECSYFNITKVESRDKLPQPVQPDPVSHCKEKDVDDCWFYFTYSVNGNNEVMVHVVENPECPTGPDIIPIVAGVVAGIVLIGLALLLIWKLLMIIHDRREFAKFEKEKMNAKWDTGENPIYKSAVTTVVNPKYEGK
Sequence of Integrin alpha-5/beta-1 (P08648 42-894 limits assumed): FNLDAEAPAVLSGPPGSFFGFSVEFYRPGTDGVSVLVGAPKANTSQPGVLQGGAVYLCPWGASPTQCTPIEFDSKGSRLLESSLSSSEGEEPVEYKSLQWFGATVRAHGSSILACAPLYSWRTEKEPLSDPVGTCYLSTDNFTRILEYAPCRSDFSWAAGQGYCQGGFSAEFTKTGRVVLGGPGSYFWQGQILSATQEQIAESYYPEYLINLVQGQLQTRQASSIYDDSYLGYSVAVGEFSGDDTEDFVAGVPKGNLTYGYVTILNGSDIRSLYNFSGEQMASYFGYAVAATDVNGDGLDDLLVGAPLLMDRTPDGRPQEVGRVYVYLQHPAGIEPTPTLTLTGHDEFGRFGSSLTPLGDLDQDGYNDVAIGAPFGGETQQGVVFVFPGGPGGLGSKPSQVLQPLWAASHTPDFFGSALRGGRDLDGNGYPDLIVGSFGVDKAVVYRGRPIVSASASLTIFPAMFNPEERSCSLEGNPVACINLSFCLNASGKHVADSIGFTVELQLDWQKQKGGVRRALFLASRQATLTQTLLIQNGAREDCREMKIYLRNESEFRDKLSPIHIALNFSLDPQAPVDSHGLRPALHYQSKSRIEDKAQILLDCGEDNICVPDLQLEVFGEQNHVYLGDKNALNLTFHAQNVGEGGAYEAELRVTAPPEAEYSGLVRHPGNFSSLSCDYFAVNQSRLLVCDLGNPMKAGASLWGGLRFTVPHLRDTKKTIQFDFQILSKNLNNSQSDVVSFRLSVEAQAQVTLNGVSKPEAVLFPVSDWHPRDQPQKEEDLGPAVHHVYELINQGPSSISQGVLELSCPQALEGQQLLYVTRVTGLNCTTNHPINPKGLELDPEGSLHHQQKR
Sequence of Integrin alpha-5/beta-1 (P08648 895-1049 limits assumed): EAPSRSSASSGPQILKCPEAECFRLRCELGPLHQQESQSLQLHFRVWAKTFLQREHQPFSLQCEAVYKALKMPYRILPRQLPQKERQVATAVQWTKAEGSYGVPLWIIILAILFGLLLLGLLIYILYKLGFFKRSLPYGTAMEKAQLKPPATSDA

[1] = molecular target: Integrin alpha-IIb/beta-3 (Homo sapiens, UniProt P05106+P08514); experiment: Binding affinity to integrin alpha2bbeta3 receptor by ELISA; type: protein-complex assay
Sequence of Integrin alpha-IIb/beta-3 (P05106 27-788 limits assumed): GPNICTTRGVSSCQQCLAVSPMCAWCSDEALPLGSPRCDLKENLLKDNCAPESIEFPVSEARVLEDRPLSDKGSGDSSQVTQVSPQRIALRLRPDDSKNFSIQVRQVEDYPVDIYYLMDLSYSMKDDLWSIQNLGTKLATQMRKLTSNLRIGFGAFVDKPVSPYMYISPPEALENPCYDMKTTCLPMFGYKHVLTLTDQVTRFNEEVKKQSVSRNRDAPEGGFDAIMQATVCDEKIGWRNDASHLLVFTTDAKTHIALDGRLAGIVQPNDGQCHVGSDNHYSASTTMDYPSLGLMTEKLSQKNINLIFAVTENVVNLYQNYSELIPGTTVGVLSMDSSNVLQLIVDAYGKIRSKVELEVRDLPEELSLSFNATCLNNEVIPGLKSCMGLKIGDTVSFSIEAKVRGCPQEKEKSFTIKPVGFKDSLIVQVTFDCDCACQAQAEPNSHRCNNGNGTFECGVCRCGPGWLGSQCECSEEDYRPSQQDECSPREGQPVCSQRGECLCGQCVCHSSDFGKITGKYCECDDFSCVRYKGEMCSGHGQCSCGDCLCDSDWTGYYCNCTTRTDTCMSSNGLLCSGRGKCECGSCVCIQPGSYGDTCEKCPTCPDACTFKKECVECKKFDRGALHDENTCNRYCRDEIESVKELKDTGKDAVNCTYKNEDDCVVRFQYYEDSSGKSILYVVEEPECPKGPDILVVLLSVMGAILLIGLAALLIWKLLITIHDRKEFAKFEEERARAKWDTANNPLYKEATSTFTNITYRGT
Sequence of Integrin alpha-IIb/beta-3 (P08514 32-887 limits assumed): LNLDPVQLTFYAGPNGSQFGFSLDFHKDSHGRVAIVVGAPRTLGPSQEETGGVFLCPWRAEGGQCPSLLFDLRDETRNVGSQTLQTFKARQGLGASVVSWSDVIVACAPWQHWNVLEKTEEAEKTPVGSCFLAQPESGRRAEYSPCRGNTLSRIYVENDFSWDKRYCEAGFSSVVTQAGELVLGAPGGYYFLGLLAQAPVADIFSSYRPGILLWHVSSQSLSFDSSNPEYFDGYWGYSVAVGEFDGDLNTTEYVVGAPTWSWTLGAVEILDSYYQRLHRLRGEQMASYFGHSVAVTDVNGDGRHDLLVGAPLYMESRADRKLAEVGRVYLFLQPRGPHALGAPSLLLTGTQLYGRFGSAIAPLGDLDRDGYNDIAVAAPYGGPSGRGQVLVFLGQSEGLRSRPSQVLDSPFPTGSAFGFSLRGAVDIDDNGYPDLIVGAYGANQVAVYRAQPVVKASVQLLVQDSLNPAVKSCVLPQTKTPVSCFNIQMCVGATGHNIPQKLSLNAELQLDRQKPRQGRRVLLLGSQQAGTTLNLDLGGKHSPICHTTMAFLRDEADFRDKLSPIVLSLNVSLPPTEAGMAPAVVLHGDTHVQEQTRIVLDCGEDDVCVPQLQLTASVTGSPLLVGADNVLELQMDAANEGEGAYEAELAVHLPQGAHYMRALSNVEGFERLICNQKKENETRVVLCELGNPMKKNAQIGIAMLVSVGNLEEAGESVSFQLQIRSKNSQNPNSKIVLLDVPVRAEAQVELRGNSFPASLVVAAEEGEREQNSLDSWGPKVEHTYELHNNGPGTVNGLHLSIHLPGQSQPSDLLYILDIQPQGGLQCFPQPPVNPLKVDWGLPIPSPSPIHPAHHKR
Sequence of Integrin alpha-IIb/beta-3 (P08514 891-1039 limits assumed): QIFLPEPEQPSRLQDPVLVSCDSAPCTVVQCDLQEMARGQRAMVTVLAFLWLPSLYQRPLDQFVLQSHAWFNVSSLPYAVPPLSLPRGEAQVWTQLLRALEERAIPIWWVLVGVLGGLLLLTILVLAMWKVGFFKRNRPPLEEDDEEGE

[2] = Oral bioavailability in Wistar rat at 10 mg/kg; type: ADME, organism-based; conditions: in vivo
Rattus norvegicus = experiment: (§1) Terminal half life in Clearance in Wistar rat at 1 mg/kg, iv; type: ADME, organism-based; design: dose 1 mg/kg, route intravenous; conditions: in vivo
[3] = Clearance in Wistar rat at 1 mg/kg, iv; type: ADME, organism-based; design: dose 1 mg/kg, route intravenous; conditions: in vivo
[4] = as §1; type: ADME, organism-based; design: dose 1 mg/kg, route intravenous; conditions: Wistar, in vivo, read-out: beta t1/2

Sequence of Integrin alpha-V/beta-3 (P05106 27-788 limits assumed): as the sequence (P05106 27-788 limits assumed) above
Sequence of Integrin alpha-V/beta-3 (P06756 31-889 limits assumed): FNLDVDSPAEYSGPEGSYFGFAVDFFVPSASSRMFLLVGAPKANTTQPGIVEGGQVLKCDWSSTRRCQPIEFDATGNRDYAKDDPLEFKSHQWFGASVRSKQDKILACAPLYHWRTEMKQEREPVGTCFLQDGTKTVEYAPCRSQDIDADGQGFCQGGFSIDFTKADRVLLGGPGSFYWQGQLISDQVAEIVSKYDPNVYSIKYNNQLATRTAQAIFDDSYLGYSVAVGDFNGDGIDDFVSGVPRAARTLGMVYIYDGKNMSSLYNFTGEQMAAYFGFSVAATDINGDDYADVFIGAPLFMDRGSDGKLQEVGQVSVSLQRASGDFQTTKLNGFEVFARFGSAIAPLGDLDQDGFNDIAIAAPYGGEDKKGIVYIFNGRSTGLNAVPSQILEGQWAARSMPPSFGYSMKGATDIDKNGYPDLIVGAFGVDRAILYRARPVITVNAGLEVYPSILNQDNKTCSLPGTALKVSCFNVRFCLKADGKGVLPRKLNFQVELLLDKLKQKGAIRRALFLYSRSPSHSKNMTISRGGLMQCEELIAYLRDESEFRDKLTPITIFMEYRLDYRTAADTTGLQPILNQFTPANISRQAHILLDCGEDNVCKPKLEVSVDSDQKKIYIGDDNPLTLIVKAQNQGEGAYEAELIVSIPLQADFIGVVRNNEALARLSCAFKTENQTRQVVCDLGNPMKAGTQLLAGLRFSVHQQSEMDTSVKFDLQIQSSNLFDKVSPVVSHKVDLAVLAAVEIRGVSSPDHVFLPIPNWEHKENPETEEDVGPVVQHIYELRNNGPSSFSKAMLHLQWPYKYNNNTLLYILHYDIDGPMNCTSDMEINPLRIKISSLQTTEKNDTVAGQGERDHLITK
Sequence of Integrin alpha-V/beta-3 (P06756 891-1048 limits assumed): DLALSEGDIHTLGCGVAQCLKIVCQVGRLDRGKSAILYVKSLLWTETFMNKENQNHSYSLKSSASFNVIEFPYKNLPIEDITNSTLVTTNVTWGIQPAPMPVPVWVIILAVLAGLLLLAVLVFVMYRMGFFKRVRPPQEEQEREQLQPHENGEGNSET

In the case of `Cc1ccnc(NCC2CC(=O)N(c3ccc(C[C@H](NC(=O)c4c(C)cc(C)cc4C)C(=O)O)cc3)C2)c1` (some centres undefined), the IC50 (Integrin alpha-V/beta-3) is reported as 319 nM, the IC50 (Integrin alpha-V/beta-5) is reported as 1340 nM and the IC50 (Integrin alpha-5/beta-1) is reported as 1.6 nM.

`Cc1ccnc(NCc2sccc2-c2ccc(C[C@H](NC(=O)c3c(C)cc(C)cc3C)C(=O)O)cc2)c1` gave an IC50 [1] of 77000 nM, an IC50 (Integrin alpha-V/beta-3) of 16000 nM and an IC50 (Integrin alpha-V/beta-5) of 17000 nM. For the same molecule, the IC50 (Integrin alpha-5/beta-1) was 887 nM.

`Cc1ccnc(NCc2cnc(-c3ccc(C[C@H](NC(=O)c4c(C)cc(C)cc4C)C(=O)O)cc3)s2)c1` showed an IC50 [1] of 150000 nM, an IC50 (Integrin alpha-V/beta-3) of 472 nM and an IC50 (Integrin alpha-V/beta-5) of 502 nM. For the same molecule, the IC50 (Integrin alpha-5/beta-1) was 13 nM.

Work on `Cc1cc(C)c(C(=O)N[C@@H](Cc2ccc(OCCCNc3ccccn3)cc2)C(=O)O)c(C)c1` yielded an IC50 (Integrin alpha-V/beta-3) of 703 nM and an IC50 (Integrin alpha-5/beta-1) of 2.5 nM.

In the case of `Cc1ccnc(NCC2CCN(c3ccc(CC(NC(=O)c4c(C)cc(C)cc4C)C(=O)O)cc3)CC2)c1` (racemic), the bioavailability [2] is reported as 16%, the IC50 [1] is reported as 23000 nM and the IC50 (Integrin alpha-V/beta-3) is reported as 84 nM. For the same molecule, the “beta t1/2” value (Rattus norvegicus) was 1.1 h, the clearance [3] was 70 mL/min/kg and the IC50 (Integrin alpha-V/beta-5) was 11000 nM. The IC50 (Integrin alpha-5/beta-1) was 2.3 nM.

Molecule `Cc1ccnc(NCc2coc(-c3ccc(C[C@H](NC(=O)c4c(C)cc(C)cc4C)C(=O)O)cc3)c2)c1` has a bioavailability [2] of 26%, an IC50 [1] of 52000 nM and an IC50 (Integrin alpha-V/beta-3) of 2420 nM. The half-life [4] was 1.47 h, the clearance [3] was 17 mL/min/kg and the IC50 (Integrin alpha-V/beta-5) was 2480 nM. The IC50 (Integrin alpha-5/beta-1) was 79 nM.

Molecule `Cc1ccnc(NCc2cc(-c3ccc(C[C@H](NC(=O)c4c(C)cc(C)cc4C)C(=O)O)cc3)on2)c1` has a bioavailability [2] of 11%, an IC50 [1] of 118000 nM and an IC50 (Integrin alpha-V/beta-3) of 261 nM. The half-life [4] was 2.3 h, the clearance [3] was 9 mL/min/kg and the IC50 (Integrin alpha-V/beta-5) was 257 nM. It also gave an IC50 (Integrin alpha-5/beta-1) of 6.1 nM.

`Cc1ccnc(NCc2cccc(-c3ccc(CC(NC(=O)c4c(C)cc(C)cc4C)C(=O)O)cc3)c2)c1` (racemic) gave an IC50 [1] of 180000 nM, an IC50 (Integrin alpha-V/beta-3) of 890 nM and an IC50 (Integrin alpha-V/beta-5) of over 20000 nM. The IC50 (Integrin alpha-5/beta-1) was 87 nM.

`Cc1ccnc(NCc2ccc(-c3ccc(CC(NC(=O)c4c(C)cc(C)cc4C)C(=O)O)cc3)cc2)c1` (racemic) gave an IC50 [1] of 165000 nM, an IC50 (Integrin alpha-V/beta-3) of 2920 nM and an IC50 (Integrin alpha-V/beta-5) of over 20 nM. It also gave an IC50 (Integrin alpha-5/beta-1) of 65 nM.

Molecule `Cc1cc(C)c(C(=O)N[C@@H](CNC(=O)CO[C@H]2C[C@H](CNc3ccccn3)N(C(=O)CC(C)(C)C)C2)C(=O)O)c(C)c1` has an IC50 [1] of over 50000 nM, an IC50 (Integrin alpha-V/beta-3) of 16000 nM and an IC50 (Integrin alpha-V/beta-5) of 90700 nM. The IC50 (Integrin alpha-5/beta-1) was 1.6 nM.

For `Cc1ccnc(NCc2cn(-c3ccc(C[C@H](NC(=O)c4c(C)cc(C)cc4C)C(=O)O)cc3)nn2)c1`, the IC50 [1] was 89000 nM, the IC50 (Integrin alpha-V/beta-3) was 100 nM and the IC50 (Integrin alpha-V/beta-5) was 347 nM. For the same molecule, the IC50 (Integrin alpha-5/beta-1) was 1.5 nM.

Molecule `Cc1ccnc(NCc2csc(-c3ccc(C[C@H](NC(=O)c4c(C)cc(C)cc4C)C(=O)O)cc3)c2)c1` has an IC50 [1] of 97000 nM, an IC50 (Integrin alpha-V/beta-3) of 1730 nM and an IC50 (Integrin alpha-V/beta-5) of 3570 nM. For the same molecule, the IC50 (Integrin alpha-5/beta-1) was 46 nM.

Reference: ChEMBL document CHEMBL1153114, “Discovery of orally available integrin alpha5beta1 antagonists” (Bioorg Med Chem Lett, 2010)
